Experimental data: patent US20120142027A1, “Compositions and Methods for Modulating the Immune Response and Identifying Immunomodulators” (WHITEHEAD INSTITUTE FOR BIOMEDICAL RESEARCH, priority 2007, published 2012)

Key:
[1] = system: RAW macrophages stably expressing wild type UNC93B-HA; experiment: Endo H sensitivity of UNC93B-HA and Class I MHC in RAW macrophages; type: cell-based, mouse; conditions: Brefeldin A 10 μg/ml, present throughout pulse, chase and CpG stimulation
Method: FIG. 14. The interaction between UNC93B and TLRs maintains in dendritic cells stimulated with TLR agonists. (a) BM-DCs were metabolically labeled with ^35S-methionine/cysteine and stimulated with TLR ligands for 1 h (LPS: 1 μg/ml, poly (I:C): 50 μg/ml, Imiquimod: 2.5 CpG DNA: 2.5 μM). Endogenous UNC93B and TLRs were immunoprecipitated with an anti-UNC93B antibody, digested with endoglycosidase H (Endo H), subjected to 10% SDS-PAGE and visualized by fluorography. TLRs coimmunoprecipitated with UNC93B are denoted by open triangles. Interaction between TLRs and UNC93B was maintained even after TLR stimulation with various agonists. […] NRS; normal rabbit serum (b) RAW macrophages stably expressing wild type UNC93B-HA were exposed to Brefeldin A (10 μg/ml) for 2 h, metabolically labeled with ^35S-methionine/cysteine for 30 min (pulse), incubated in normal medium for 2 h (chase) followed by 2 h stimulation with CpG (+CpG) or were left unstimulated (−CpG). All incubations (pulse, chase, CpG stimulation) were done in the continuous presence of Brefeldin A. As a control, cells were not treated with Brefeldin A (−BA). Cells were lysed in RIPA buffer and UNC93B-HA and Class I MHC products were recovered from cell lysates by immunoprecipitation with an anti-HA (upper panel) or Class I antibody (lower panel), respectively. […]

TLR signaling = conditions: pretreatment of wild type cells; cited from earlier work
[2] = system: UNC93B/TLR interaction in A20 B cells; experiment: Coimmunoprecipitation of TLRs with UNC93B-HA after stimulation with TLR agonists; type: cell-based, mouse; conditions: imiquimod 10 μM, gardiquimod 1 μM, CpG DNA 1 μM, 1 h
Method: Stimulation with TLR agonists. A20 B cells either not transduced or stably transduced with UNC93B-HA WT or H412R were metabolically labeled with ^35S-methionine/cysteine for 4 h (pulse). TLR agonists were added to the cells for the final hour of the pulse at the following concentrations: imiquimod: 10 μM, gardiquimod: 1 μM, CpG DNA: 1 μM.
Pulse-chase, immunoprecipitation and Endo H/F assay. In brief, cells were starved for methionine and cysteine in Met/Cys-free DMEM (starvation medium) for 30 min, pulsed for different time periods (see figure legends) with ^35S-labeled methionine/cysteine (Perkin Elmer) in starvation medium supplemented with dialyzed IFS, and chased with an excess of non-radioactive amino acids in regular DMEM for various time periods (see figure legends). Cells were lysed in either of the following lysis buffers supplemented with the complete protease inhibitors (Roche) as indicated in the figure legends: RIPA (20 mM Tris-HCl, pH 7.4, 1 mM EDTA, 100 mM NaCl, 1% Triton X-100, 0.5% sodium deoxycholate, 0.1% SDS), or buffer containing 50 mM Tris-HCl, pH 7.4, 150 mM NaCl, 5 mM EDTA with either 1% NP-40 or 1% digitonin as detergent. Lysates were equalized for incorporation of radioactive material with ^35S counts in the trichloroacetic acid precipitate and immunoprecipitated with the indicated antibodies. […]

BM-DCs [3] = experiment: Surface MHC class II level on BM-DCs by flow cytometry; type: cell-based, mouse; conditions: B6 or 3d BM-DCs; 1 μg/ml LPS, 1 μM CpG or 1 μM imiquimod, 16 h
Method: (b) BM-DCs from B6 and 3d mice were fixed, permeablized and stained for MHC class II (green) and Lamp1 (red). […] White dashed lines mark the cell boundary. […] (d) B6 or 3d BM-DCs were stimulated with 1 μg/ml LPS or 1 μM CpG for 16 h, fixed, permeabilized and stained for MHC class II and Lamp1. […] Scale bars; 10 μm

TLR7 = molecular target: T1, TLR7 (Mus musculus, UniProt P58681); experiment: Live cell imaging of TLR7-YFP localization in BM-DCs; type: cell-based; conditions: wild type (B6) BM-DCs, 1 μM imiquimod, 2 h
T1 construct: expressed in transfected cells; host or cells: bone marrow-derived dendritic cells from B6 or 3d mice, retroviral transduction (pMXrmv5-TLR7-YFP)
T1 sequence (P58681 27-1050): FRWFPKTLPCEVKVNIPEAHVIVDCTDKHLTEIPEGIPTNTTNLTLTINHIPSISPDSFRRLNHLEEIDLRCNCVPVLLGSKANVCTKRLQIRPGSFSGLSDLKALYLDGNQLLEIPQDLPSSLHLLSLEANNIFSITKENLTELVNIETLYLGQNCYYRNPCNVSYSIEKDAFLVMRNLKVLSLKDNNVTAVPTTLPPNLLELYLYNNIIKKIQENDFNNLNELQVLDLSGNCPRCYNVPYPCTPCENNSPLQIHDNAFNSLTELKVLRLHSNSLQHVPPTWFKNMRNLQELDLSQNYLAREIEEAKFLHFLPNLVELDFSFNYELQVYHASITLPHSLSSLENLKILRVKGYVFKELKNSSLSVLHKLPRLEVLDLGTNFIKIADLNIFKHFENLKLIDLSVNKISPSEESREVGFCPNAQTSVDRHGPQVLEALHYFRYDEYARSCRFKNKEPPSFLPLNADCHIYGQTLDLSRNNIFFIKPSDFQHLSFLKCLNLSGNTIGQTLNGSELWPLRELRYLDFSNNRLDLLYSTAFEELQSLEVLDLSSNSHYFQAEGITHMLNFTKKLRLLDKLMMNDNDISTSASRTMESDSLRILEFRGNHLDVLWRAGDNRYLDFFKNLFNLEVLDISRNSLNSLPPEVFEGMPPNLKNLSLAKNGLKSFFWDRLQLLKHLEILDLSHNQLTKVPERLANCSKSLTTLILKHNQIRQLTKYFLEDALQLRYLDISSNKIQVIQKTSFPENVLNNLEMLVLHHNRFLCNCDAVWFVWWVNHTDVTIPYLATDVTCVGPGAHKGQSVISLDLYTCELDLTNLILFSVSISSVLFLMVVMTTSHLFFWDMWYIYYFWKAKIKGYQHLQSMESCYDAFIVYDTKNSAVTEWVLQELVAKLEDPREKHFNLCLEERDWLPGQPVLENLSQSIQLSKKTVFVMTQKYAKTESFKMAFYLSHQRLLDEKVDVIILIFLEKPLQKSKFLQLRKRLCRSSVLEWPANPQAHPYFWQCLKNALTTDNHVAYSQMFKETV
Method: Image acquisition and data analysis. For live cell imaging, cells were grown in 8 well-chambered coverglasses (LAB-TEK). During imaging, cells were maintained in phenol red-free DMEM supplemented with 25 mM Hepes (pH 7.4) at 37° C. with 5% supplemental CO2 in room air using a Solent scientific chamber. Images were acquired using a spinning disk confocal microscope equipped with a 3 watt water-cooled 5 line laser (Prairie Technologies), a Nikon TE2000-U inverted microscope, acousto-optic tunable filters (AOTF), a Yokagawa QLC-100 spinning disk confocal head, a Prior x,y stage controller, a Piezo z stage and Hamamatsu Orca ER and EM CCD cameras. All images were taken with a Nikon 100X 1.4NA DIC lens. Metamorph (Molecular Devices) was used for image acquisition and figures were constructed using Adobe Photoshop and Illustrator. Quantitative colocalization analyses were performed using applications ‘Measure Colocalization’ and ‘Correlation Plot’ in the MetaMorph software (Molecular Devices).

BM-DCs [4] = experiment: TNF production in BM-DCs stimulated with TLR agonists (intracellular TNF, flow cytometry); type: cell-based, mouse; conditions: BM-DCs from 3d (UNC93B H412R) mice; 100 nM imiquimod or 1 μM CpG, 4 h, with 10 μg/ml brefeldin A
Method: TNF assay. Five days old BM-DCs expressing either wild type or mutant UNC93B-GFP were stimulated with 1 μg/ml LPS, 100 nM imiquimod or 1 μM CpG for 4 hours in the presence of 10 μg/ml brefeldin A. The cells were fixed with 4% formaldehyde for 10 min at RT and permeabilized with 0.5% saponin in FACS buffer (PBS with 2% BSA and 0.05% sodium azide) for 10 min. After blocking with anti-CD16 antibody (clone 2.4G2) for 30 min, cells were stained with PE-conjugated anti-CD11c (clone HL3) and Alexa Fluor 647-conjugated anti-TNF (clone MP6-XT22) antibodies for 30 min. Fluorescence intensity was measured with LSR I flow cytometer (BD biosciences). Data were collected with CellQuest (BD biosciences) and analyzed with FlowJo (TriStar).

Question: Which “Endo H resistance of Class I MHC and UNC93B” value [1] does the source give for `C[C@H]1CCC/C=C/[C@@H]2C[C@H](O)C[C@H]2[C@H](O)/C=C/C(=O)O1` [Brefeldin A] here?
Answer: both Class I MHC and UNC93B acquire partially EndoH resistant hybrid type oligosaccharides

Question: With `CO/C1=C\C(C)=C\[C@@H](C)[C@@H](O)[C@@H](C)C/C(C)=C/C=C/[C@H](OC)[C@@H]([C@@H](C)[C@@H](O)[C@H](C)[C@@]2(O)C[C@@H](O)[C@H](C)[C@@H](C(C)C)O2)OC1=O` [bafilomycin] as the compound, how does the “effect on TLR signaling compared with the defects of 3d cells” value (TLR signaling) read?
Answer: mimicked

Question: With `CCN(CC)CCCC(C)Nc1ccnc2cc(Cl)ccc12` (centres unmarked) [chloroquine] as the compound, how does the “effect on TLR signaling compared with the defects of 3d cells” value (TLR signaling) read?
Answer: mimicked

Question: For `CCNCc1nc2c(N)nc3ccccc3c2n1CC(C)(C)O` [gardiquimod], which “levels of coimmunoprecipitated TLR polypeptides after TLR activation versus unstimulated cells” value [2] is on record?
Answer: No significant changes

Question: For `CC(C)Cn1cnc2c(N)nc3ccccc3c21` [imiquimod, Imiquimod], which “surface level of MHC class II” value (BM-DCs [3]) is on record?
Answer: failed to increase the MHC class II level in 3d cells

Question: What about the “localization of TLR7 after stimulation” value (TLR7) of the same compound?
Answer: trafficking of TLR7 from the ER to endolysosomes was also observed

Question: And the “levels of coimmunoprecipitated TLR polypeptides after TLR activation versus unstimulated cells” value [2]?
Answer: No significant changes

Question: What about the TNF production (BM-DCs [4]) of the same compound?
Answer: failed to produce TNF
